Results on two molecules are retold here after paper PMC8589628, “Characterization and Antimicrobial Studies of Iturin-Like and Bogorol-Like Lipopeptides From Brevibacillus spp. Strains GI9 and SKDU10” (Frontiers in Microbiology, 2021).

Series [1] deals with L. monocytogenes MTCC 839. In kind it is cell-based, Listeria monocytogenes. Here is the method:
(§1) The antimicrobial activity of HPLC purified compounds was determined against various test strains including S. aureus MTCC 1430, Vibrio cholera MTCC 3904, Bacillus subtilis MTCC 121, Listeria monocytogenes MTCC 839, C. albicans MTCC 183, C. albicans MTCC 1637, C. albicans MTCC 227, C. tropicalis MTCC 184, C. glabrata MTCC 3019, and C. inconspicua MTCC 1074. Antimicrobial activity was also tested against clinical Candida strains and phytopathogenic fungi viz. Fusarium moniliforme MTCC 158, Alternaria brassicicola MTCC 2102 and Colletotrichum acutatum MTCC 1037. Bacterial and Candida test strains were grown in NB and yeast malt broth (YMB), respectively. Fungal test strains were grown in potato dextrose broth (PDB). Minimum inhibitory concentrations (MICs) of purified compounds were evaluated against test organisms by using a microtiter plate dilution assay. Mid-log-phase test strains (5 × 10^5 CFU/ml) were incubated in a 96-well plate with different concentrations of the lipopeptides for 24–48 h at 37°C (final volume of 200 μl). OD was measured at 600 nm after 24 and 48 h for bacteria and yeast, respectively, using an ELISA microplate reader (Thermo Scientific, United States). MIC against phytopathogenic fungi was determined using the 96-well microtiter plate method ([Sharma et al., 2020]).

For another series, the system named is B. subtilis MTCC 121. Type of series: cell-based, Bacillus subtilis. As for the experimental part:
as §1

Another series has as its system V. cholerae MTCC 3904. Type of series: cell-based, Vibrio cholera. As for the experimental part:
as §1

Series [2] relates to S. aureus MTCC 1430. The series is described as follows: TLC-bioautography assay. In kind it is cell-based, Staphylococcus aureus. Conditions: 10 μg/ml loaded on TLC silica gel; overlay on NA, 24 h at 37°C. Here is the method: Overlay thin-layer chromatography (TLC)-bioautography assay was used to determine the antimicrobial activity of the purified antimicrobial compounds ([Wedge and Nagle, 2000]). For bioautography, the antimicrobial compounds (10 μg/ml) were loaded on TLC silica gel plates in duplicates and were developed in one dimension using a solvent system containing chloroform: […]: water (65:12:4 v/v). TLC plate was cut into two vertical parts after running. One part of the TLC was used for direct detection of antimicrobial activity by overlaying it on NA containing S. aureus MTCC 1430 (about 10^6 cells ml^–1). After 1 h diffusion at 4°C, the TLC silica plate was removed and the NA plate was incubated for 24 h at 37°C. Other part of the TLC was sprayed with phosphomolybdic acid as a staining reagent for lipids.

The subject of series [3] is S. aureus MTCC 1430. The series is described as follows: Time kill assay. Type of series: cell-based, Staphylococcus aureus. Conditions: in PBS, CFU count. As for the experimental part: Killing kinetics of purified compounds was performed using cells of S. aureus MTCC 1430, V. cholerae MTCC 3904, and C. albicans MTCC 183. Test strains were grown to obtain OD between 0.2 and 0.3 (OD 600 nm), centrifuged, and washed thrice with sterile PBS. Pellets were suspended in PBS and treated with different concentrations of active compounds. Cells after treatment were washed, resuspended, and serially diluted cell suspensions were plated on NA plates. After overnight incubation at 37°C, CFU were recorded ([Singh et al., 2021]).

A short description of series [4]: Effect of temperature and pH on activity (well-diffusion assay). In kind it is physicochemical. Here is the method:
Sensitivities of purified antimicrobial compounds to temperature, pH, and hydrolytic enzymes were confirmed by performing well-diffusion assay. pH stability was determined by adjusting the pH of aliquots of purified antimicrobial compounds from 2.0 to 12.0 (using 10 mM HCl or NaOH) and incubating at room temperature for 4 h. The residual activity was measured after neutralizing the sample to pH 7.0. To determine temperature susceptibility, antimicrobial compounds were incubated at different temperatures ranging from 37 to 100°C for 1 h and 121°C for 15 min, and then residual antimicrobial activity was determined after cooling the samples to room temperature. Similarly, proteolytic enzymes such as trypsin and proteinase K were used at three different concentrations (0.1, 1.0, and 5.0 mg/ml) to ensure their effect on the activity of antimicrobial compounds. The enzyme solutions were prepared in 50 mM phosphate buffer (pH 7.0). All reactions were performed at 37°C for 6 h followed by deactivation of the enzyme by heating the solution in boiling water for 5 min before performing the activity assay.
(In general: In agar diffusion tests the substance spreads into inoculated agar from a disc or well.)

For series [5], the system named is S. aureus MTCC 1430. The experiment in a line: TEM of treated cells. In kind it is cell-based, Staphylococcus aureus. Conditions: S. aureus MTCC 1430, 1X MIC, 30 min, 37°C. Here is the method:
(§2) Effect of antimicrobial compounds on cell membrane of test organisms was determined by transmission electron microscopy (TEM). Test strains, S. aureus MTCC 1430, V. cholerae MTCC 3904, and C. albicans MTCC 183 were cultured to mid-log phase, washed, and re-suspended in 1X PBS (OD 600 nm 0.2). The cell suspensions were incubated (37°C) with 1X MIC of purified antimicrobial compounds for 30 min. Cells after treatment were centrifuged, washed twice with PBS. For TEM, cells of S. aureus MTCC 1430 and V. cholerae MTCC 3904 were subjected to negative stain with 0.1% (w/v) sodium phosphotungstate (PTA, Sigma, United States) in water for 1 min, on a carbon-coated copper grid with 300 mesh (Polyscience, United States) and observed under transmission electron microscope (JEOL JEM 2100, United States) ([Raje et al., 2006]). For SEM, C. albicans MTCC 183 cells were immobilized on poly L-lysine glazed glass slides and incubated at 4°C for 2 h. Cells were fixed using Karnovsky’s fixative and serially dehydrated with gradient of ethanol, freeze dried, and platinum coated. ZEISS EV040 (United States) scanning electron microscope was employed to photograph the cells ([Raje et al., 2006]). Spores of A. brassicicola MTCC 2102 were treated with 2X MIC of lipopeptides for 2 h and observed under phase-contrast microscope (Nickon H600L, Japan). […]

Series [6] concerns Spores of A. brassicicola MTCC 2102. The experiment in a line: Phase-contrast microscopy of treated spores. In kind it is cell-based, Alternaria brassicicola. Conditions: A. brassicicola MTCC 2102 spores, 2X MIC, 2 h. Here is the method:
as §2

[7] abbreviates: Temperature 37 °C, 1h (pH 7.0), well-diffusion assay.
The mark [8] stands for this setting: Temperature 60 °C, 1h (pH 7.0), well-diffusion assay.
[9] abbreviates: Temperature 80 °C, 1h (pH 7.0), well-diffusion assay.
Setting [10] is: Temperature 100 °C, 1h (pH 7.0), well-diffusion assay.
Setting [11] is: Temperature 121 °C, 15 min (304 kPa) (pH 7.0), well-diffusion assay.
Setting [12] is: pH 2.0, 4h/ 25 °C, neutralised to pH 7.0 before well-diffusion assay.
The mark [13] stands for this setting: pH 4.0, 4h/ 25 °C, neutralised to pH 7.0 before well-diffusion assay.
The mark [14] stands for this setting: pH 6.0, 4h/ 25 °C, neutralised to pH 7.0 before well-diffusion assay.
[15] abbreviates: pH 7.0, 4h/ 25 °C, well-diffusion assay.
[16] abbreviates: pH 8.0, 4h/ 25°C, neutralised to pH 7.0 before well-diffusion assay.
[17] abbreviates: pH 10.0, 4h/ 25 °C, neutralised to pH 7.0 before well-diffusion assay.
Setting [18] is: pH 12.0, 4h/ 25 °C, neutralised to pH 7.0 before well-diffusion assay.

Read-outs that look alike come from different tables or passages of the source. Peptide text beside a SMILES is read from it. * marks the point of attachment. X1 = CC(C)CCCCCCCCCCCCC(=O)*

As for `CC(C)CCCCCCCCCCCCC(=O)N[C@H](C(=O)NCC(=O)N[C@@H](C)C(=O)N[C@@H](CO)C(=O)N[C@@H](Cc1c[nH]cn1)C(=O)N[C@@H](CCC(N)=O)C(=O)N[C@@H](CCC(N)=O)C(=O)O)[C@@H](C)O` [ILL] (X1-TGASHQQ-OH; N-terminus assumed), the MIC value was 200 to 220 µg/mL in series [1] (MTCC 839, 24 h); 260 to 270 µg/mL against B. subtilis MTCC 121 (MTCC 121, 24 h); 105 to 115 µg/mL against V. cholerae MTCC 3904 (MTCC 3904, 24 h). For the same molecule, in the series with S. aureus MTCC 1430 [2], the “Inhibition of S. aureus MTCC 1430 in TLC-based bioautography” value is on record as “inhibited S. aureus MTCC 1430”. Besides, the “Time to complete reduction in population” value in the series with S. aureus MTCC 1430 [3] (S. aureus MTCC 1430, 1X MIC) is recorded as not above 60 min; with S. aureus MTCC 1430 [3] (S. aureus MTCC 1430, 2X MIC), not above 30 min. Moreover, the Residual activity is recorded as 100% in series [4] (setting [7]); 100% in series [4] (setting [8]); 100% in series [4] (setting [9]); 100% in series [4] (setting [10]); 100% in series [4] (setting [11]); 43% in series [4] (setting [12]). The Residual activity in series [4] (setting [13]) was 95.5%; in series [4] (setting [14]), 100%; in series [4] (setting [15]), 100%; in series [4] (setting [16]), 100%; in series [4] (setting [17]) it was 100%; in series [4] (setting [18]), “Nil”. Moreover, the “Effect on cells (TEM)” value with S. aureus MTCC 1430 [5] is “lysis with accumulation of debris on cell surface, altered morphology, and shrinkage”. In addition, in series [6], the “Effect on spores (phase-contrast microscopy)” value is listed as “structural irregularity”.

In the case of “Dhb-Tyr-Orn-Ile-Val-Val-Lys-Val-Leu-Asp-Val-Glu [BLL, bogorol like lipopeptide purified from Brevibacillus sp. strain SKDU10; 12 amino acids and C17 hydroxy fatty acid side chain]”, the MIC value in series [1] (L. monocytogenes MTCC 839, NB, 5 × 10^5 CFU/ml, 37°C, OD 600 nm after 24 h, 10–550 μg/ml in 5 μg/ml increments) was in the range of 230 to 240 µg/mL; against B. subtilis MTCC 121 (B. subtilis MTCC 121, NB, 5 × 10^5 CFU/ml, 37°C, OD 600 nm after 24 h, 10–550 μg/ml in 5 μg/ml increments), 225 to 235 µg/mL; against V. cholerae MTCC 3904 (V. cholerae MTCC 3904, NB, 5 × 10^5 CFU/ml, 37°C, OD 600 nm after 24 h, 10–550 μg/ml in 5 μg/ml increments) it was 140 to 150 µg/mL. In addition, in the series on S. aureus MTCC 1430 [2], the “Inhibition of S. aureus MTCC 1430 in TLC-based bioautography” value is on record as “active against S. aureus MTCC 1430”. For the same molecule, the “Time to complete reduction in population” value in the series with S. aureus MTCC 1430 [3] (S. aureus MTCC 1430, 1X MIC) is not above 30 min; with S. aureus MTCC 1430 [3] (S. aureus MTCC 1430, 2X MIC) it was not above 30 min. Also, in series [4], the “Thermostability (activity after exposure to 121°C for 15 min, autoclaving)” value is given as “thermostable”. Further, the Residual activity in series [4] (setting [7]) was found to be 100%; in series [4] (setting [8]), 100%; in series [4] (setting [9]) it was 100%; in series [4] (setting [10]) it was 100%; in series [4] (setting [11]) it was 100%; in series [4] (setting [12]) it was 52%. Further, the Residual activity in series [4] (setting [13]) is listed as 100%; in series [4] (setting [14]) it was 100%; in series [4] (setting [15]), 100%; in series [4] (setting [16]), 100%; in series [4] (setting [17]) it was 94.3%; in series [4] (setting [18]) it was “Nil”. Further, the “Effect on cells (TEM)” value with S. aureus MTCC 1430 [5] is “irregularities in structure with rupturing of cell wall and lysis”. The “Effect on spores (phase-contrast microscopy)” value in series [6] was “structural irregularity”.
